Experimental data from publication PMC12021657, “Rapid traversal of vast chemical space using machine learning-guided docking screens” (Nature Computational Science, 2025).
Where two headings read alike, the source gives them in different places. Blank lines part the entries; values can stand above or below the compound they belong to.

Experiments:
Human D2R [1] = molecular target: T1, Human D2R (Homo sapiens, UniProt P14416); test: Human D2R functional cAMP assay (HTRF, CHO-D2 #S20 cells, forskolin); assay type: cell-based; settings: for functional character at D2R: cAMP assay; for Emax: read-out: Emax (maximal effect)
T1 construct: expressed in transfected cells
Experimental: Human D2R activity was measured by determining the amount of cAMP produced. Human D2R functional experiments were carried out in a CHO-D2 #S20 cell line. Five-thousand cells were seeded in 30 μl of Optimem (Invitrogen 11058) + 500 μM IBMX (Sigma 17018) on a 96-well black-and-white isoplate (PerkinElmer 6005030). Test compounds and dopamine were added in their corresponding wells and incubated for 10 min at 37 °C with gentle stirring (150 r.p.m.). Then, 10 µM forskolin (Sigma 17018) was added and incubated for 5 min at 37 °C with gentle stirring (150 r.p.m.). Reagents from the kit (#CISBIO 62AM4PEC) were added and incubated for 1 h at room temperature with gentle stirring (90 r.p.m.) and protected from light. HTRF (excitation wavelength: 320 nm; emission wavelengths: 620–665 nm) from each well was measured using a Tecan Infinite M1000 Pro. Two independent experiments were carried out to calculate EC50 and Emax values.

Human D2R [2] = molecular target: T1, Human D2R; test: Human D2R competition radioligand binding ([3H]-spiperone, CHO-D2R #S20 membranes); settings: for D2R radioligand displacement at 10 µM (%) / inhibition at 10 µM: 10 µM compound, mean ± SEM of two technical replicates; for inhibition at 10 µM: 2 h, read-out: D2R radioligand displacement at 10 µM (%); for Ki: mean ± SEM from three independent experiments
Experimental: (§1) Screening compounds (Supplementary Tables 10 and 12) were purchased from Enamine (compound purity >90%, which was confirmed by liquid chromatography−mass spectrometry and ^1H NMR spectroscopy for identified ligands; Supplementary Figs. 19–30). Human D2R competition binding experiments were carried out in polypropylene 96-well plates. Each well contained 20 µg of membranes from a CHO-D2R #S20 cell line (protein concentration of 4,322 µg ml^−1), 1.5 nM [^3H]-spiperone (54.3 Ci mmol^−1, 1 mCi ml^−1, PerkinElmer NET1187250UC) and the compound studied. Non-specific binding was determined in the presence of 10 µM sulpiride (Sigma Aldrich S8010). The reaction mixture (250 µl per well) was incubated at 25 °C for 120 min, after which 200 µl was transferred to a GF/C 96-well plate (Millipore) pretreated with 0.5% PEI and treated with binding buffer (50 mM Tris-HCl, 1 mM EDTA, 5 mM MgCl2, 5 mM KCl, 120 mM NaCl, pH 7.4). The reaction mixture was filtered and washed 4 times with 250 µl wash buffer (50 mM Tris-HCl, 0.9% NaCl, pH 7.4) before the addition of 30 μl Universol. The final measurement was performed in a microplate beta scintillation counter (Microbeta Trilux, PerkinElmer). Human A2AR competition binding experiments were carried out in a multiscreen GF/C 96-well plate (Millipore) pretreated with binding buffer (Tris-HCl 50 mM, EDTA 1 mM, MgCl2 10 mM, 2 U ml^−1 adenosine deaminase, pH 7.4). Each well was incubated with 5 μg of membranes from the HeLa-A2A cell line and prepared in our laboratory (lot A003/14-04-2019, protein concentration 2,058 μg ml^−1), 1 nM [^3H]-ZM241385 (50 Ci mmol^−1, 1 mCi ml^−1, ARC-ITISA 0884), and the compounds studied and standards. Non-specific binding was determined in the presence of NECA 50 μM (Sigma E2387). The reaction mixture (total volume of 200 μl per well) was incubated at 25 °C for 30 min, then filtered and washed 4 times with 250 μl wash buffer (Tris-HCl 50 mM, EDTA 1 mM, MgCl2 10 mM, pH 7.4), and measured in a microplate beta scintillation counter (Microbeta Trilux, PerkinElmer). Unless stated otherwise, three independent experiments were carried out to calculate Ki values.

Human A2AR = molecular target: T2, Human A2AR (Homo sapiens, UniProt P29274); test: Human A2AR competition radioligand binding ([3H]-ZM241385, HeLa-A2A membranes); settings: for A2AR radioligand displacement at 20 µM (%): 20 µM compound, mean ± SEM of two technical replicates
T2 construct: expressed in transfected cells; host or cells: HeLa-A2A cell line (membranes prepared in house, lot A003/14-04-2019)
Experimental: as §1

T1 sequence (P14416 whole entry): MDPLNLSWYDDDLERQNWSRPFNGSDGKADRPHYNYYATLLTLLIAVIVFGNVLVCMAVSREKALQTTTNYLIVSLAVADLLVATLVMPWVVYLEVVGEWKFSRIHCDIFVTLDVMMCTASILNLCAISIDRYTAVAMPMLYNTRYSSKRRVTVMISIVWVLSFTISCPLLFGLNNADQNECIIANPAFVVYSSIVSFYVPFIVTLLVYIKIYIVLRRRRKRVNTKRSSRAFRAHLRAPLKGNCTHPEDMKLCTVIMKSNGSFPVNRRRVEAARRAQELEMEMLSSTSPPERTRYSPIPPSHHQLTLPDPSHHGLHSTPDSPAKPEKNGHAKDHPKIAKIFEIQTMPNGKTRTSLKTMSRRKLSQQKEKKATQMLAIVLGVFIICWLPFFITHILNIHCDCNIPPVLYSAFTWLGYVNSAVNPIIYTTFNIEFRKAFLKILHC
T2 sequence (P29274 whole entry): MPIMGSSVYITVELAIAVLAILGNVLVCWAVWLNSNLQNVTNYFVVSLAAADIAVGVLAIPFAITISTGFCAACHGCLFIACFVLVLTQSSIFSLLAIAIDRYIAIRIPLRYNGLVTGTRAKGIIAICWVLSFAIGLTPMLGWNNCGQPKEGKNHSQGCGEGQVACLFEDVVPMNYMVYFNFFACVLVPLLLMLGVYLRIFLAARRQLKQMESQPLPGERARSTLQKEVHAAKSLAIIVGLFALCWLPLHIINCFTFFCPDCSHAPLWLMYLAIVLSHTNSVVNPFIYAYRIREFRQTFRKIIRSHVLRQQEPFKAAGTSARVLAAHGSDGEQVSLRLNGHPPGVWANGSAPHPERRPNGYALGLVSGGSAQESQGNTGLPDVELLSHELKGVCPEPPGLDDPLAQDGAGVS

Structure (SMILES): Fc1ccc(-n2ccc(CCNC3Cc4ccccc4C3)n2)cc1 [Compound 1, c1ccc2c(c1)CC(C2)NCCc3ccn(n3)c4ccc(cc4)F]
EC50 (Human D2R [1]; CHO-D2 #S20 cells, two independent experiments, read-out: EC50 (D2R-mediated changes in intracellular cAMP)): 10 µM
functional character at D2R (Human D2R [1]): full agonists
Emax (Human D2R [1]): 99%
D2R radioligand displacement at 10 µM (%) (Human D2R [2]; listed as Z1441695252): 59 ± 1%
inhibition at 10 µM (Human D2R [2]): 59 ± 1%
Ki (Human D2R [2]): 3 µM

Structure (SMILES): Cc1cnccc1CCN1CCC(Oc2ccccc2Cl)C1 (stereo not drawn) [Compound 2, Cc1cnccc1CCN2CCC(C2)Oc3ccccc3Cl]
EC50 (Human D2R [1]): 14 µM
functional character at D2R (Human D2R [1]): full agonists
Emax (Human D2R [1]): 100%
D2R radioligand displacement at 10 µM (%) (Human D2R [2]; listed as Z2436421891): 56 ± 2%
inhibition at 10 µM (Human D2R [2]): 56 ± 2%
Ki (Human D2R [2]): 3.8 µM

Structure (SMILES): NC(=NCCc1c[nH]c2c(Cl)cc(Cl)cc12)Nc1ncccn1 [Compound 5, c1cnc(nc1)NC(=NCCc2c[nH]c3c2cc(cc3Cl)Cl)N]
Ki (Human D2R [2]): 14 µM
Ki (Human A2AR; fit to concentration-response curve from two technical replicates, compound 5 three independent experiments (mean ± SEM), read-out: Ki (A2AR)): ~20 µM

Structure (SMILES): COc1ccc(CCN=C(N)Nc2ncccn2)c(F)c1 [Z8854579362, COc1ccc(c(c1)F)CCN=C(N)Nc2ncccn2]
A2AR radioligand displacement at 20 µM (%) (Human A2AR): 12±4%

Structure (SMILES): Cc1ccc(F)c(CCN=C(N)Nc2ncccn2)c1 [Z8854579366, Cc1ccc(c(c1)CCN=C(N)Nc2ncccn2)F]
A2AR radioligand displacement at 20 µM (%) (Human A2AR): 15±1%

Structure (SMILES): Cn1ccc(NC(=O)CNC(=O)C2Cc3c(Br)cccc3CN2)n1 (stereo not drawn) [Z8854579367, Cn1ccc(n1)NC(=O)CNC(=O)C2Cc3c(cccc3Br)CN2]
A2AR radioligand displacement at 20 µM (%) (Human A2AR): 10±2%

Structure (SMILES): Cc1ccncc1CNC(=O)C(N)Cc1c[nH]c2ncccc12 (stereo not drawn) [Z8857701713, Cc1ccncc1CNC(=O)C(Cc2c[nH]c3c2cccn3)N]
A2AR radioligand displacement at 20 µM (%) (Human A2AR): 3±2%

Structure (SMILES): NC(=NCc1c(Cl)cccc1Cl)Nc1ncccn1 [Z8861112994, c1cc(c(c(c1)Cl)CN=C(N)Nc2ncccn2)Cl]
A2AR radioligand displacement at 20 µM (%) (Human A2AR): 32±2%

Continued, values first:

A2AR radioligand displacement at 20 µM (%) (Human A2AR): 20±1%
Structure (SMILES): NC(=NCCc1c(F)cccc1Br)Nc1ncccn1 [Z8854579363, c1cc(c(c(c1)Br)CCN=C(N)Nc2ncccn2)F]

A2AR radioligand displacement at 20 µM (%) (Human A2AR): 17±4%
Structure (SMILES): NC(=NCCCc1ccc(F)cc1)Nc1ncccn1 [Z8854579364, c1cnc(nc1)NC(=NCCCc2ccc(cc2)F)N]

A2AR radioligand displacement at 20 µM (%) (Human A2AR): 14±1%
Structure (SMILES): NC(=NCCc1ccc(F)cc1F)Nc1ncccn1 [Z8854579368, c1cnc(nc1)NC(=NCCc2ccc(cc2F)F)N]

A2AR radioligand displacement at 20 µM (%) (Human A2AR): 2±3%
Structure (SMILES): NC(=NCCOc1ccc(F)cc1F)Nc1ncccn1 [Z8854579369, c1cnc(nc1)NC(=NCCOc2ccc(cc2F)F)N]

A2AR radioligand displacement at 20 µM (%) (Human A2AR): 11±1%
Structure (SMILES): NC(=NCCc1ccc(F)cc1)Nc1ncccn1 [Z8854579370, c1cnc(nc1)NC(=NCCc2ccc(cc2)F)N]
